Assay results published in ChEMBL document CHEMBL4706608, “Design and synthesis of 3-(4-pyridyl)-5-(4-sulfamido-phenyl)-1,2,4-oxadiazole derivatives as novel GSK-3β inhibitors and evaluation of their potential as multifunctional anti-Alzheimer agents” (Eur J Med Chem, 2021).
Calls of active or inactive are those of the source. No cut-off for these calls is given here.

How the values were obtained:
[1] = target: Glycogen synthase kinase-3 beta (Homo sapiens, UniProt P49841); test: Inhibition of GSK3beta (unknown origin) measured after 40 mins by ADP-Glo assay
BV-2 = test: Anti-neuroinflammation in mouse BV2 cells assessed as inhibition of LPS-induced NO production preincubated for 1 hr followed by LPS addition measured after 24 hrs by Griess reagent based assay; assay type: functional, cell-based
PC-12 [2] = test: Neuroprotective activity against H2O2-induced cytotoxicity in rat PC12 cells assessed as increase in cell viability at 10 uM preincubated for 3 hrs followed by H2O2 addition and measured after 24 hrs by MTT assay (reference value: 24.8 to 41.7%); assay type: functional
PC-12 [3] = test: Neuroprotective activity against H2O2-induced cytotoxicity in rat PC12 cells assessed as increase in cell viability at 30 uM preincubated for 3 hrs followed by H2O2 addition and measured after 24 hrs by MTT assay (reference value: 24.8 to 41.7%); assay type: functional
[4] = Cytotoxicity against rat PC-12 cells assessed as cell viability at 30 uM by MTT assay relative to control; assay type: cell-based; conditions: read-out: Activity
[5] = Cytotoxicity against rat PC-12 cells assessed as cell viability at 50 uM by MTT assay relative to control; assay type: cell-based; conditions: read-out: Activity
HepG2 [6] = test: Increase in glucose consumption in human HepG2 cells at 20 uM after 24 hrs by glucose oxidase assay; assay type: functional, cell-based
HepG2 [7] = test: Increase in glucose consumption in human HepG2 cells at 1 mM after 24 hrs by glucose oxidase assay (reference value: 1.36 mM); assay type: functional

Chain of Glycogen synthase kinase-3 beta (P49841 whole entry): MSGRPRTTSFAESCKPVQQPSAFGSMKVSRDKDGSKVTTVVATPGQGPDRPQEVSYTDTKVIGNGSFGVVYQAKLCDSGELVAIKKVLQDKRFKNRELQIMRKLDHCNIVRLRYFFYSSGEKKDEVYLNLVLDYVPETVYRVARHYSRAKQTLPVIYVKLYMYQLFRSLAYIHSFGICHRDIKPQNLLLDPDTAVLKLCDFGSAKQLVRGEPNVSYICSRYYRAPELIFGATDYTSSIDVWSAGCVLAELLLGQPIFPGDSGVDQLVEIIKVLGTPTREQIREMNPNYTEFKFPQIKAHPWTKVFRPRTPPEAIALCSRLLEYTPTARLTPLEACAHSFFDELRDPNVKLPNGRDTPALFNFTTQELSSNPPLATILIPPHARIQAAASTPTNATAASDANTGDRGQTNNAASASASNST

| Structure (SMILES) | IC50 [1] [nM] | IC50 (BV-2) [µM] | Activity (PC-12 [2]) [%] | Activity (PC-12 [3]) [%] | viability at 30 µM [4] [%] | viability at 50 µM [5] [%] | Activity (HepG2 [6]) | Activity (HepG2 [7]) [mM] |
| --- | --- | --- | --- | --- | --- | --- | --- | --- |
| O=S(=O)(Nc1ccc(-c2nc(-c3ccnc(Nc4ccc(OC(F)(F)F)cc4)c3)no2)cc1)c1ccc(OC(F)(F)F)cc1 | 8740 | 4.22 | 30.6 | 32.4 | 98.7 | 100 |  |  |
| O=S(=O)(Nc1ccc(-c2nc(-c3ccnc(Nc4ccc(OC(F)(F)F)cc4)c3)no2)cc1)c1ccc(F)c(Cl)c1 | 18900 | 4.96 | 36.9 | 40.1 | 98.1 | 92.1 |  |  |
| CC(C)(C)c1ccc(S(=O)(=O)Nc2ccc(-c3nc(-c4ccnc(Nc5ccc(C(F)(F)F)cc5)c4)no3)cc2)cc1 | 1490 | 8.69 | 63.2 | 71.9 | 99.1 | 94.1 |  |  |
| O=S(=O)(Nc1ccc(-c2nc(-c3ccnc(Nc4ccc(OC(F)(F)F)cc4)c3)no2)cc1)c1ccc(Cl)s1 | 2980 | 6.23 | 27.1 | 32.7 | 97.9 | 87.9 |  |  |
| COc1ccc(S(=O)(=O)Nc2ccc(-c3nc(-c4ccnc(Nc5ccc(OC(F)(F)F)cc5)c4)no3)cc2)cc1 | 15400 | 3.23 | 55.8 | 68.6 | 99.2 | 92.2 | Active |  |
| COc1ccc(Nc2cc(-c3noc(-c4ccc(NS(=O)(=O)c5ccc(C(C)(C)C)cc5)cc4)n3)ccn2)cc1 | 9890 | 6.18 | 44.5 | 48.1 | 98.6 | 91.6 |  |  |
| CC(C)(C)c1ccc(Nc2cc(-c3noc(-c4ccc(NS(=O)(=O)c5ccc(C(C)(C)C)cc5)cc4)n3)ccn2)cc1 | 560 | 10.9 | 61.3 | 70.1 | 96.2 | 99.7 | Active |  |
| CC(C)(C)c1ccc(S(=O)(=O)Nc2ccc(-c3nc(-c4ccnc(Nc5ccc(OC(F)(F)F)cc5)c4)no3)cc2)cc1 | 7660 | 0.72 | 48.1 | 63.1 | 96.3 | 95.3 |  |  |
| O=S(=O)(Nc1ccc(-c2nc(-c3ccnc(Nc4ccc(OC(F)(F)F)cc4)c3)no2)cc1)c1cccc(C(F)(F)F)c1 | 2630 | 1.49 | 54.6 | 60.7 | 97.4 | 90.4 | inactive |  |
| Oc1ccc(/C=C/c2cc(O)cc(O)c2)cc1 [RESVERATROL] |  | 10.3 |  |  |  |  |  |  |
| CC(C)c1ccc(Nc2cc(-c3noc(-c4ccc(NS(=O)(=O)c5ccc(C(C)(C)C)cc5)cc4)n3)ccn2)cc1 | 2070 | 7.82 | 48.3 | 54.4 | 98.8 | 78.8 |  |  |
| CC(C)(C)c1ccc(S(=O)(=O)Nc2ccc(-c3nc(-c4ccnc(Nc5ccc(F)c(C(F)(F)F)c5)c4)no3)cc2)cc1 | 3930 | 8.94 | 48.9 | 61.7 | 98.9 | 75.9 |  |  |
| O=[N+]([O-])c1ccc(S(=O)(=O)Nc2ccc(-c3nc(-c4ccnc(Nc5ccc(OC(F)(F)F)cc5)c4)no3)cc2)cc1 | > 50000 | 7.59 | 38.6 | 53.4 | 98.5 | 90.5 | inactive |  |
| O=S(=O)(Nc1ccc(-c2nc(-c3ccnc(Nc4ccc(OC(F)(F)F)cc4)c3)no2)cc1)c1cccs1 | 7630 | 1.3 | 57 | 54.9 | 97.5 | 94.5 | Active |  |
| O=S(=O)(Nc1ccc(-c2nc(-c3ccnc(Nc4ccc(OC(F)(F)F)cc4)c3)no2)cc1)c1ccc(Br)cc1 | 3120 | 5.16 | 52.3 | 55.8 | 102 | 82.5 |  |  |
| CC(C)(C)c1ccc(S(=O)(=O)Nc2ccc(-c3nc(-c4ccnc(Nc5ccc(F)c(F)c5)c4)no3)cc2)cc1 | 1320 | 2.44 | 49.6 | 60.4 | 97.7 | 92.7 | inactive |  |
| CC(C)(C)c1ccc(S(=O)(=O)Nc2ccc(-c3nc(-c4ccnc(Nc5ccc(Cl)cc5F)c4)no3)cc2)cc1 | 2850 | 4.4 | 46 | 49.6 | 98.5 | 88.5 |  |  |
| CC(=O)Nc1cccc(S(=O)(=O)Nc2ccc(-c3nc(-c4ccnc(Nc5ccc(OC(F)(F)F)cc5)c4)no3)cc2)c1 | 2170 | 7.55 | 51.6 | 54.7 | 93.2 | 79.2 | inactive |  |
| O=S(=O)(Nc1ccc(-c2nc(-c3ccnc(Nc4ccc(OC(F)(F)F)cc4)c3)no2)cc1)c1ccccc1OC(F)(F)F | 1210 | 2.53 | 40.4 | 49.8 | 91.6 | 85.6 |  |  |
| O=S(=O)(Nc1ccc(-c2nc(-c3ccnc(Nc4ccc(OC(F)(F)F)cc4)c3)no2)cc1)c1ccc(F)cc1 | 2690 | 4.41 | 59.4 | 67.3 | 99.9 | 97.9 |  |  |
| O=[N+]([O-])c1cccc(S(=O)(=O)Nc2ccc(-c3nc(-c4ccnc(Nc5ccc(OC(F)(F)F)cc5)c4)no3)cc2)c1 | 8320 | 2.15 | 53.7 | 64.7 | 94.3 | 94.3 |  |  |
| Cc1ccccc1Nc1cc(-c2noc(-c3ccc(NS(=O)(=O)c4ccc(C(C)(C)C)cc4)cc3)n2)ccn1 | 2290 | 6.07 | 51.5 | 69.3 | 100 | 99.3 |  |  |
| Cc1cccc(Nc2cc(-c3noc(-c4ccc(NS(=O)(=O)c5ccc(C(C)(C)C)cc5)cc4)n3)ccn2)c1 | 940 | 10.6 | 52.3 | 68.5 | 93.8 | 93.8 |  |  |
| COC(=O)c1ccc(S(=O)(=O)Nc2ccc(-c3nc(-c4ccnc(Nc5ccc(OC(F)(F)F)cc5)c4)no3)cc2)s1 | 1190 | 1.31 | 25.6 | 30.6 | 97.2 | 98.6 |  |  |
| CCc1ccc(Nc2cc(-c3noc(-c4ccc(NS(=O)(=O)c5ccc(C(C)(C)C)cc5)cc4)n3)ccn2)cc1 | 3240 | 5.4 | 31.5 | 36.6 | 98.6 | 83.6 |  |  |
| O=c1c(O)c(-c2ccc(O)c(O)c2)oc2cc(O)cc(O)c12 [QUERCETIN] |  |  | 53.4 | 65.7 | 99.1 | 99.5 |  |  |
| CN(C)C(=N)NC(=N)N [METFORMIN] |  |  |  |  |  |  |  | 3.28 |
| Cc1ccc(Nc2cc(-c3noc(-c4ccc(NS(=O)(=O)c5ccc(C(C)(C)C)cc5)cc4)n3)ccn2)cc1 | 4560 | 1.5 | 59.4 | 64.4 | 97.9 | 87.9 |  |  |
